Test results from patent US20040259942A1, “Modulation of stat activity” (priority 2001, published 2004).

What was measured:
ERKs = assay: ERK phosphorylation (Western blotting); assay type: cell-based, human; details: for activation of ERKs by TPA (phosphorylation of ERK½): BR293 cells; for activation of ERKs in response to serum: result not shown
Description: ERKs are unaffected by OdDHL (a) BR293 cells were serum-starved (lane 1) or starved and stimulated with TPA for 30 min alone (lane 2) or in the presence of increasing concentrations of OdDHL (lanes 3-6) or 100 μM OHHL (lane 7). Cell lysates were prepared and analysed by Western blotting for ERK phosphorylation with an antibody specific for phospho-ERK½ (upper panel) and for ERK content with an antibody against ERKs (lower panel). (b) BR293 cells were serum-starved (lane 1) or starved and stimulated with Anisomycin for 30 min alone (lane 2) or in the presence of increasing concentrations of OdDHL (lanes 3-6) or 100 μM OHHL (lane 7). Cell lysates were prepared and analysed by Western blotting for JNK/SAPK phosphorylation with an antibody specific for phospho-JNKs (upper panel) and for SAPK/JNK content with an antibody against JNKs (lower panel). (c) BR293 cells were treated as described in (b) and lysates were analysed by Western blotting for p38^MAPK phosphorylation with an antibody specific for phospho-p38 (upper panel) and for p38 content with an antibody against p38 (lower panel).

MCF-7 cells = assay: DAPI staining, confocal microscopy (apoptosis); assay type: cell-based, human; details: growing cells treated; 100 μM (FIG. 17)
Description: (§1) OdDHL induces apoptosis of BC cells (a) MCF-7 cells were cultured in full medium alone or in the presence of 1001M OdDHL or 100 μM OHHL. […] Left-hand panels show DAPI, right-hand panels show the corresponding phase contrast and middle panels the image overlays. (b) MDA-MB-468 cells were cultured in full medium alone or in the presence of 100 μM OdDHL or 100 μM OHHL. After 18 hours cells were fixed, stained and examined as in (a). (c) BR293, MCF-7 and MDA-MD-468 cells were cultured in full medium alone (lanes 1, 3, 5) or in the presence of 100 μM OdDHL (lanes 2, 4, 6) or 400 μM etoposide (lane 7). After 18 hours cells were lysed and analysed for PARP cleavage by Western blotting with an anti-PARP antibody. Full length PARP is labelled and the lower arrow indicates the major caspase cleavage fragment.

MDA-MB-468 cells = assay: DAPI staining, confocal microscopy (apoptosis); assay type: cell-based, human; details: growing cells treated; 100 μM (FIG. 17)
Description: as §1, with “After 18 hours cells were fixed, stained and examined as in (a).” left out

BR293 cells [1] = assay: Cell proliferation assay (cell counting); assay type: cell-based, human; details: for growth of cultured cells (confluence): full medium, 48 h, 100 μM (FIG. 16a)
Description: Equal numbers of BR293 and MDA-MB-468 cells were seeded in MEM containing 10% FCS into 10 cm dishes. […]. For the 48 time points, fresh medium containing the appropriate inhibitor was applied to the cells after 24 hours. Controls were allowed to grow for 48 hours in the absence of inhibitor. Thereafter, all the cells were washed twice with ice cold PBS, harvested and counted under a phase-contrast microscope. Values are expressed as averages+S.D. (n=3).
Equal numbers of BR293, MCF-10F, MCF-7, MDA-MB-468, HKEK293 and COS1 cells were seeded in the appropriate growth medium into 10 cm dishes. Cells were allowed to grow in the presence of various concentrations of OdDHL or OHHL for 24 or 48 hours. For the 48-hour time points, fresh medium containing the appropriate inhibitor was applied to the cells after 24 hours. Controls were allowed to grow for 48 hours in the absence of inhibitor. Thereafter, all the cells were washed twice with ice cold PBS, harvested and counted under a phase-contrast microscope. Values are expressed as averages ±S.D. (n=3).

BR293 cells [2] = assay: DAPI staining, fluorescence microscopy (apoptosis); assay type: cell-based, human; details: full medium (10% FCS); 24 h
Description: OdDHL blocks BC cell oroliferation and induces apoptosis. BR293 cells were grown in full medium (10% FCS) in the absence or presence of OdDHL or the control OHHL. After 24 h, cell were harvested, stained with DAPI and examined by fluorescence microscopy.

murine STAT3 = assay: STAT3-dependent luciferase reporter (SIE2-luc) in transfected COS-1 cells; assay type: cell-based; details: COS-1 cells transfected with murine STAT3
Description: (c) COS-1 cells were transfected with an expression vector for STAT3, a STAT3-responsive luciferase reporter (SIE2-luc) and a control gene for β-galactosidase. […] After 6 hours cells were harvsted and reporter gene expression analysed. Results are normalised against β-galactosidase values and expressed as averages +/−SD (n=3).

STAT1 and 3 = assay: STAT complex formation in serum-starved cells treated with AHL alone (EMSA); assay type: cell-based, human; details: serum-starved BR293 cells; up to 2 h
Excerpt: Cells were lysed and the DNA-binding activity of STAT1 and 3 was examined by EMSA.

SMILES	activation of ERKs by TPA (phosphorylation of ERK½) (ERKs)	activation of ERKs in response to serum (ERKs)	nuclear integrity by DAPI staining (MCF-7 cells)	nuclear integrity by DAPI staining (MDA-MB-468 cells)	growth of cultured cells (confluence) (BR293 cells [1])	nuclear morphology / viability after DAPI staining (BR293 cells [2])	EGF-stimulated STAT3-dependent reporter gene expression, effect of co-treatment (murine STAT3)	STAT complex formation by AHL alone (STAT1 and 3)	inhibition of proliferation (BR293 cells [1]; over a 48-hour period)
CCCC(=O)CC(=O)N[C@H]1CCOC1=O [OHHL, N-(3-oxohexanoyl)-L-homoserine lactone, reference compound]	Neither OdDHL nor OHHL had any effect	Neither OdDHL nor OHHL had any effect	unaffected	unaffected	reached confluence in 48 hours	remained viable	had no effect	did not induce STAT complex formation	
CCCCCCCCCC(=O)CC(=O)N[C@H]1CCOC1=O [OdDHL, N-(3-oxo-dodecanoyl)-L-homoserine lactone]	Neither OdDHL nor OHHL had any effect	Neither OdDHL nor OHHL had any effect	nuclear disruption	nuclear disruption	grew poorly or not at all	induced DNA condensation and nuclear fragmentation	augmented	did not induce STAT complex formation	70%-80%
